Measured values reported in patent US8765152B2, “Pharmaceutical or neutraceutical formulation” (Evonik Roehm GmbH, priority 2010, dated 2014).

B1: BBI: Bowman-Birk inhibitor from soy bean source (Sigma Aldrich); trypsin and chymotrypsin inhibitor (protein, UniProt P01055 40-110, looked up)
Bowman-Birk type proteinase …: DDESSKPCCDQCACTKSNPPQCRCSDMRLNSCHSACKSCICALSYPAQCFCVDITDFCYEPCKPSEDDKEN

Legend:
[1] = tested on: Caco-2-cell monolayer; experiment: TEER, cationic penetration promotor/anionic active ingredient mixtures (Example 18); assay type: cell-based
Procedure: TEER-Testing was performed analogous to example 12.
The following mixtures in HBSS-buffers were tested
Desmopressin acetate=Desmo,
EUDRAGIT® E Carbonate=E (s. description: carbonated amino(meth)acrylate copolymer)
Bowman Birk Inhibitor=BBI
Heparin: Low molecular weight heparin (LMW-Heparine); Fraxiparin™ (Nadroparin calcium); 0.6 ml ready to use syringe for subcutaneous injection (5700 IU anti-Xa/mg); Ch.B.: 3394-1; Glaxo Smith Kline

[2] = tested on: Caco-2-cell monolayer; experiment: TEER, pure penetration promotor, Caco-2 cell monolayer (Example 17); assay type: cell-based; conditions: positive control 0.1%
Procedure: The penetration promoter in the sense of the present invention may be defined by reducing the initial TEER-value of the buffer solution without penetration promotor (100%) to 50% or less, preferably 40% or less, preferably 30% or less, preferably 20% or less in the presence of the penetration promotor at a concentration of 1 mg/ml after 60 min measured in a Caco-2-cell monolayer culture as transport barrier.
TEER-Testing was performed analogous to example 12. EUDRAGIT® E acetate=EUDRAGIT® E dissolved in water by addition of acetic acid until clear solution was obtained; EUDRAGIT® E PO base=dispersion of EUDRAGIT® E PO (powder form of EUDRAGIT® E) in water (not dissolved); chitosan acetate=chitosan dissolved in water by addition of acetic acid until clear solution was obtained.

[3] = tested on: Pancreatin; experiment: In-vitro pancreatic enzyme inhibition test, degradation of desmopressin acetate by pancreatin (Example 14); assay type: biochemical; conditions: for desmopressin acetate remaining in presence of pancreatin: control solutions (positive control 1 mg/ml BBI final)
Procedure: In-Vitro Pancreatic Enzyme Inhibition Test of the Preparations of Examples 1, 4 and 5
Inhibition experiments were performed using a new study design considering the dissolution of the pellets.
80 mg of each formulation were stirred in 10 ml of HBSS pH 5.8 at the lowest stirring speed available. The stirring was stopped after 30 min and the suspensions allowed to settle down before an aliquot (2 ml) was drawn and mixed with 2 mL of a solution containing 80 μg·ml^−1 of Desmopressin acetate in HBSS buffer pH 6.5. The pH of the solutions was measured but not adjusted.
As a negative control 2 ml of HBSS buffer were mixed with 2 ml of a solution containing 80 μg·ml^−1 of Desmopressin acetate in HBSS buffer pH 6.5. The pH of the solutions was measured but not adjusted.
As a positive control a solution containing 4 mg of BBI per ml in HBSS was used. 2 ml of the solution were mixed with 2 ml of a solution containing 80 μg·ml^−1 of Desmopressin acetate in HBSS buffer pH 6.5. The pH of the solutions was measured but not adjusted.
200 μL of the prepared solutions were mixed with 200 μl of a Pancreatin solution (20 mg·ml^−1) and incubated for 1, 2 and 3 h at 37° C. Each experiment was performed in triplicate (three individually prepared solutions).
(Final concentrations in the positive control: 1 mg/ml BBI, 20 μg/ml desmopressin actuate and 10 mg/ml pancreatin)
For the 100% value 80 mg pellets were stirred in 10 ml HBSS pH 5.8 for 30 min and homogenized using an ultraturrax. The suspension was stirred for further 15 minutes and allowed to settle down.
The supernatant was collected and further diluted with Desmopressin acetate in HBSS buffer pH 6.5 as described above. The pH of the solutions was measured but not adjusted.
For the starting values (t0) the mixture was directly added to 400 μl of acetonitrile and diluted with 1200 μL of HBSS buffer pH 6.5. The solution were analysed by HPLC using a RP-18-column as a stationary phase and a water/acetonitrile-mixture (80:20) as eluent phase at a wavelength of 220 nm.

[4] = orally ingested; cited from earlier work
[5] = listed as buffer (baseline), mean of n = 3

Row | Molecule | TEER in % of TEER in Medium during the test ([1]; 0 min) [%] | TEER in % of TEER in Medium during the test ([1]; 15 min) [%] | TEER in % of TEER in Medium during the test ([1]; 30 min) [%] | TEER in % of TEER in Medium during the test ([1]; 60 min) [%] | TEER in % of TEER in Medium during the test ([1]; 90 min) [%] | TEER in % of TEER in Medium during the test ([1]; 120 min) [%] | TEER in % of TEER in Medium during the test ([1]; 240 min) [%] | TEER in % of TEER in Medium during the test [1, 5] [%] | desmopressin acetate remaining in presence of pancreatin ([3]; 0 min) [%] | desmopressin acetate remaining in presence of pancreatin ([3]; 60 min) [%] | desmopressin acetate remaining in presence of pancreatin ([3]; 120 min) [%] | desmopressin acetate remaining in presence of pancreatin ([3]; 180 min) [%] | also measured
1 | Nadroparin calcium [Example 18d] | 110 | 102 | 106 | 105 | 112 | 111 | 104 | 118 | – | – | – | – | –
2 | NC(=O)CC[C@@H]1NC(=O)[C@H](Cc2ccccc2)NC(=O)[C@H](Cc2ccc(O)cc2)NC(=O)CCSSC[C@@H](C(=O)N2CCC[C@H]2C(=O)N[C@H](CCCN=C(N)N)C(=O)NCC(N)=O)NC(=O)[C@H](CC(N)=O)NC1=O [Example 18c, Desmopressin acetate] | 119 | 111 | 115 | 111 | 118 | 119 | 109 | 123 | – | – | – | – | –
3 | CCCCCCCCCCCCOS(=O)(=O)[O-].[Na+] [Example 18h, Sodiumdodecylsufate] | 22 | 16 | 16 | 12 | 16 | 12 | 13 | 123 | – | – | – | – | Mean-TEER ([2]; 5 min): 12%; Mean-TEER ([2]; 60 min): 4%; Mean-TEER ([2]; 120 min): 10%; Mean-TEER ([2]; 180 min): 12%; Mean-TEER ([2]; 240 min): 15%; Mean-TEER ([2]; HBSS (0 min)): 100%
4 | NC(=O)CC[C@@H]1NC(=O)[C@H](Cc2ccccc2)NC(=O)[C@H](Cc2ccc(O)cc2)NC(=O)CCSSC[C@@H](C(=O)N2CCC[C@H]2C(=O)N[C@H](CCCN=C(N)N)C(=O)NCC(N)=O)NC(=O)[C@H](CC(N)=O)NC1=O [Desmopressin acetate] | – | – | – | – | – | – | – | – | 100.00 | 61.79 | 50.51 | 33.54 | recovery of desmopressin ([3]; in the absence of the BBI, time not stated): more than 60%
5 | B1 | – | – | – | – | – | – | – | – | 100.00 | 98.82 | 94.48 | 85.25 | ingested bowman birk inhibitor absorbed in to the bloodstream [4]: Approximately 50%; inhibition of degradation of desmopressin acetate by pancreatin (in words) ([3]; n=3): remarkably reduce the degradation
